The text below walks through data of patent US20250163104A1, “MACROCYCLIC IMMUNOMODULATORS” (priority 2021, published 2025).

Each structure is given as a SMILES string. Like-named read-outs stand apart in the source and are kept apart here. Where a SMILES comes first, the peptide text is derived from it. Bridges are numbered along the chain shown (N, C = ends). [ ]: non-standard residue; d: D form. The star is where a group is joined. ξ: configuration not given here. Phe(3-CF3) = N[C@@H](Cc1cccc(C(F)(F)F)c1)C(=O)O; Ala(morpholin-4-yl) = N[C@@H](CN1CCOCC1)C(=O)O; Phe(4-COOH) = N[C@@H](Cc1ccc(C(=O)O)cc1)C(=O)O; Asp(3,3-Me2) = CC(C)(C(=O)O)[C@H](N)C(=O)O; Bip = N[C@@H](Cc1ccc(-c2ccccc2)cc1)C(=O)O; Phe(4-NH2) = Nc1ccc(C[C@H](N)C(=O)O)cc1; Phe(3-Me) = Cc1cccc(C[C@H](N)C(=O)O)c1; Val(3-OH) = CC(C)(O)[C@H](N)C(=O)O; 4Pal = N[C@@H](Cc1ccncc1)C(=O)O; Cha = N[C@@H](CC1CCCCC1)C(=O)O; Cit = NC(=O)NCCC[C@H](N)C(=O)O; Carboxymethyl = O=C(O)C*; Orn = NCCC[C@H](N)C(=O)O; Dab = NCC[C@H](N)C(=O)O; Dap = NC[C@H](N)C(=O)O; ξPra = C#CCC(N)C(=O)O

The target of this test is T1, human PD-1 / PD-L1-Ig binding on Jurkat cell line over-expressing human PD-1 (Jurkat-PD-1) (Homo sapiens, UniProt Q15116).
T1 construct: expressed in transfected cells; host or cells: Jurkat
Kind of test: Jurkat-PD-1 Cell Binding High-Content Screening Assay (CBA). The conditions noted are these: PE-labeled PD-L1-Ig 20 nM final. The class given is cell-based. A digest of the protocol: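 PE-PD-L1-Ig 20 nM final; cells in DMEM/10% FCS; cpd pre-incubation 2 h, 37° C; ligand 1 h; PFA fix + Hoechst 33342; high-content imaging read-out.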

The mark [1] stands for this setting: Jurkat-PD-1 cells, read-out: Jurkat HPD1_PDL1 IC50.

T1 sequence (Q15116 25-288): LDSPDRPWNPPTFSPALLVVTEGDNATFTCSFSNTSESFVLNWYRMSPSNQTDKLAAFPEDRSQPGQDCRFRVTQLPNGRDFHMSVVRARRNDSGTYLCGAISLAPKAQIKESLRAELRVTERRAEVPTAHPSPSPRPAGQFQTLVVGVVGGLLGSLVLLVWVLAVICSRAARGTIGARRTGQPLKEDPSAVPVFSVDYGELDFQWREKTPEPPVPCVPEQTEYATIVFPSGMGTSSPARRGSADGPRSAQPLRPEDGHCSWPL

As a reminder, the IC50 is the midpoint of a concentration-inhibition curve. For the compound `CC(C)C[C@@H]1NC(=O)[C@H](CCN)NC(=O)[C@@H](CC(C)C)NC(=O)[C@H](CCCN)NC(=O)[C@H](CCCNC(N)=O)NC(=O)[C@H](Cc2ccc(-c3ccccc3)cc2)NC(=O)[C@H](C(C)C)NC(=O)[C@H](Cc2c[nH]c3ccccc23)NC(=O)[C@H](CC(=O)O)NC(=O)[C@H](Cc2ccc(C(=O)O)cc2)NC(=O)[C@H](CN)NC(=O)CSC[C@@H](C(=O)N[C@@H](C)C(N)=O)NC(=O)[C@H]([C@@H](C)O)NC(=O)[C@H](C(C)C)NC1=O` [Compound 1043] ({CH2CO}-[Dap][Phe(4-COOH)]DWV[Bip][Cit][Orn][dL][Dab]LVTCA-NH2; thioether N-14), the IC50 under setting [1] turned out to be 31.9 nM.
With `CC[C@H](C)[C@@H]1NC(=O)[C@H](Cc2ccc(-c3ccccc3)cc2)NC(=O)[C@H](C(C)C)NC(=O)[C@H](Cc2c[nH]c3ccccc23)NC(=O)[C@H](CC(=O)O)NC(=O)[C@H](Cc2ccc(O)cc2)NC(=O)[C@H](CC(N)=O)NC(=O)CSC[C@@H](C(=O)NCC(N)=O)NC(=O)[C@H]([C@@H](C)O)NC(=O)[C@H](C(C)C)NC(=O)[C@H](CC(C)C)NC(=O)[C@H](CCCCN)NC(=O)[C@@H](CC(C)C)NC(=O)[C@H](CCCN)NC1=O` [Compound 1131] ({CH2CO}-NYDWV[Bip]I[Orn][dL]KLVTCG-NH2; thioether N-14), the IC50 under setting [1] is 24.8 nM.
On the same count and under the same terms, the figure for `Cc1cccc(C[C@@H]2NC(=O)[C@H](CC(=O)O)NC(=O)[C@H](Cc3ccc(C(=O)O)cc3)NC(=O)[C@H](Cc3ccncc3)NC(=O)CSC[C@@H](C(N)=O)NC(=O)[C@H](CCC(=O)O)NC(=O)[C@H](C(C)C)NC(=O)[C@H](CC3CCCCC3)NC(=O)[C@H](CCN)NC(=O)[C@@H](CC(C)C)NC(=O)[C@H](CCCN)NC(=O)[C@H](CCCNC(N)=O)NC(=O)[C@H](Cc3ccc(-c4ccccc4)cc3)NC(=O)[C@H](C(C)C)NC2=O)c1` [Compound 2269] ({CH2CO}-[4Pal][Phe(4-COOH)]D[Phe(3-Me)]V[Bip][Cit][Orn][dL][Dab][Cha]VEC-NH2; thioether N-14) is 34.1 nM; for `Cc1cccc(C[C@@H]2NC(=O)[C@H](CC(=O)O)NC(=O)[C@H](Cc3ccc(OCC(=O)O)cc3)NC(=O)[C@H](CN)NC(=O)CSC[C@@H](C(=O)N[C@@H](C)C(N)=O)NC(=O)[C@H](CCCNC(=N)N)NC(=O)[C@H](C(C)C)NC(=O)[C@H](CC3CCCCC3)NC(=O)[C@H](CCN)NC(=O)[C@@H](CC(C)C)NC(=O)[C@H](CCCN)NC(=O)[C@H](C(C)C)NC(=O)[C@H](Cc3ccc(-c4ccccc4)cc3)NC(=O)[C@H](C(C)C)NC2=O)c1` [Compound 1756] ({CH2CO}-[Dap]Y(Carboxymethyl)D[Phe(3-Me)]V[Bip]V[Orn][dL][Dab][Cha]VRCA-NH2; thioether N-14) it is 5.5 nM; for `CC(C)C[C@H]1NC(=O)[C@H](CCCN)NC(=O)[C@H](Cc2ccc(C(=O)O)cc2)NC(=O)[C@H](Cc2ccc(-c3ccccc3)cc2)NC(=O)[C@H](Cc2ccc(C(=O)O)cc2)NC(=O)[C@H](Cc2cccc(C(F)(F)F)c2)NC(=O)[C@H](CC(N)=O)NC(=O)[C@H](Cc2ccc(C(=O)O)cc2)NC(=O)[C@H](CN2CCOCC2)NC(=O)CSC[C@@H](C(=O)N[C@@H](CCN)C(N)=O)NC(=O)[C@H](CO)NC(=O)[C@H](C(C)(C)O)NC(=O)[C@H](CC2CCCCC2)NC(=O)[C@H](CCN)NC1=O` [Example 2719] ({CH2CO}-[Ala(morpholin-4-yl)][Phe(4-COOH)]N[Phe(3-CF3)][Phe(4-COOH)][Bip][Phe(4-COOH)][Orn][dL][Dab][Cha][Val(3-OH)]SC[Dab]-NH2; thioether N-14) it is 43.9 nM.
Same read-out and setting: the figure for `CC(C)[C@@H]1NC(=O)[C@H](Cc2c[nH]c3ccccc23)NC(=O)[C@H](CC(=O)O)NC(=O)[C@H](Cc2ccncc2)NC(=O)[C@H](CN)NC(=O)CSC[C@@H](C(=O)N[C@@H](C)C(N)=O)NC(=O)[C@H]([C@@H](C)O)NC(=O)[C@H](C(C)C)NC(=O)[C@H](CC2CCCCC2)NC(=O)[C@H](CCN)NC(=O)[C@@H](Cc2ccccc2)NC(=O)[C@H](CCCN)NC(=O)[C@H](CCC(=O)O)NC(=O)[C@H](Cc2ccc(-c3ccccc3)cc2)NC1=O` [Compound 1433] ({CH2CO}-[Dap][4Pal]DWV[Bip]E[Orn][dF][Dab][Cha]VTCA-NH2; thioether N-14) is 40.5 nM.
`C#CCC(NC(=O)[C@H](CCN)NC(=O)[C@@H]1CSCC(=O)N[C@@H](Cc2ccncc2)C(=O)N[C@@H](Cc2ccc(OCC(=O)O)cc2)C(=O)N[C@@H](CC(=O)O)C(=O)N[C@@H](Cc2c[nH]c3ccccc23)C(=O)N[C@@H](C(C)C)C(=O)N[C@@H](Cc2ccc(-c3ccccc3)cc2)C(=O)N[C@@H]([C@@H](C)CC)C(=O)N[C@@H](CCCN)C(=O)N[C@H](CC(C)C)C(=O)N[C@@H](CCN)C(=O)N[C@@H](CC(C)C)C(=O)N[C@@H](C(C)C)C(=O)N[C@@H]([C@@H](C)O)C(=O)N1)C(N)=O` (stereo partly drawn) [Compound 1765] ({CH2CO}-[4Pal]Y(Carboxymethyl)DWV[Bip]I[Orn][dL][Dab]LVTC[Dab][ξPra]-NH2; thioether N-14): the IC50 under setting [1] turned out to be 21.4 nM.
The same measure, in the same setting: the figure for `Cc1cccc(C[C@@H]2NC(=O)[C@H](CC(=O)O)NC(=O)[C@H](Cc3ccc(OCC(=O)O)cc3)NC(=O)[C@H](Cc3ccncc3)NC(=O)CSC[C@@H](C(=O)N[C@@H](CCN)C(N)=O)NC(=O)[C@H](CO)NC(=O)[C@H](C(C)(C)O)NC(=O)[C@H](CC3CCCCC3)NC(=O)[C@H](CCN)NC(=O)[C@@H](CC(C)C)NC(=O)[C@H](CCC(N)=O)NC(=O)[C@H](Cc3ccc(C(=O)O)cc3)NC(=O)[C@H](Cc3ccc(-c4ccccc4)cc3)NC(=O)[C@H](Cc3ccc(C(=O)O)cc3)NC2=O)c1` [Compound 2643] ({CH2CO}-[4Pal]Y(Carboxymethyl)D[Phe(3-Me)][Phe(4-COOH)][Bip][Phe(4-COOH)]Q[dL][Dab][Cha][Val(3-OH)]SC[Dab]-NH2; thioether N-14) is 7.3 nM; for `Cc1cccc(C[C@@H]2NC(=O)[C@H](CC(=O)O)NC(=O)[C@H](Cc3ccc(OCC(=O)O)cc3)NC(=O)[C@H](Cc3ccncc3)NC(=O)CSC[C@@H](C(=O)N[C@@H](C)C(N)=O)NC(=O)[C@H]([C@@H](C)O)NC(=O)[C@H](C(C)C)NC(=O)[C@H](CC(C)C)NC(=O)[C@H](CCN)NC(=O)[C@@H](CC(C)C)NC(=O)[C@H](CCCN)NC(=O)[C@H](CCCNC(N)=O)NC(=O)[C@H](Cc3ccc(-c4ccccc4)cc3)NC(=O)[C@H](C(C)C)NC2=O)c1` [Compound 1184] ({CH2CO}-[4Pal]Y(Carboxymethyl)D[Phe(3-Me)]V[Bip][Cit][Orn][dL][Dab]LVTCA-NH2; thioether N-14) it is 6.2 nM; for `Cc1cccc(C[C@@H]2NC(=O)[C@H](CC(=O)O)NC(=O)[C@H](Cc3ccc(OCC(=O)O)cc3)NC(=O)[C@H](CCN)NC(=O)CSC[C@@H](C(=O)N[C@@H](CCN)C(N)=O)NC(=O)[C@H](CO)NC(=O)[C@H](C(C)(C)O)NC(=O)[C@H](CC3CCCCC3)NC(=O)[C@H](CCN)NC(=O)[C@@H](CC(C)C)NC(=O)[C@H](C(C)(C)C(=O)O)NC(=O)[C@H](Cc3ccc(OCC(=O)O)cc3)NC(=O)[C@H](Cc3ccc(-c4ccccc4)cc3)NC(=O)[C@H](Cc3ccc(OCC(=O)O)cc3)NC2=O)c1` [Compound 2073] ({CH2CO}-[Dab]Y(Carboxymethyl)D[Phe(3-Me)]Y(Carboxymethyl)[Bip]Y(Carboxymethyl)[Asp(3,3-Me2)][dL][Dab][Cha][Val(3-OH)]SC[Dab]-NH2; thioether N-14) it is 22.2 nM.
For `Cc1cccc(C[C@@H]2NC(=O)[C@H](CC(=O)O)NC(=O)[C@H](Cc3ccc(C(=O)O)cc3)NC(=O)[C@H](Cc3ccncc3)NC(=O)CSC[C@@H](C(=O)N[C@@H](C)C(N)=O)NC(=O)[C@H]([C@@H](C)O)NC(=O)[C@H](C(C)C)NC(=O)[C@H](CC3CCCCC3)NC(=O)[C@H](CCN)NC(=O)[C@@H](CC(C)C)NC(=O)[C@H](CCCN)NC(=O)[C@H](CC3CCCCC3)NC(=O)[C@H](Cc3ccc(-c4ccccc4)cc3)NC(=O)[C@H](C(C)C)NC2=O)c1` [Compound 1621], the IC50 under setting [1] was 36.7 nM.
For the compound `CC(C)C[C@H]1NC(=O)[C@H](CCCN)NC(=O)[C@H](CCC(=O)O)NC(=O)[C@H](Cc2ccc(-c3ccccc3)cc2)NC(=O)[C@H](C(C)C)NC(=O)[C@H](Cc2c[nH]c3ccccc23)NC(=O)[C@H](CC(=O)O)NC(=O)[C@H](Cc2ccc(C(=O)O)cc2)NC(=O)[C@H](Cc2ccncc2)NC(=O)CSC[C@@H](C(=O)N[C@@H](C)C(N)=O)NC(=O)[C@H]([C@@H](C)O)NC(=O)[C@H](C(C)C)NC(=O)[C@H](CC2CCCCC2)NC(=O)[C@H](Cc2c[nH]cn2)NC1=O` [Compound 1597], the IC50 (Jurkat HPD1_PDL1 IC50, Jurkat-PD-1 cells) is 20.2 nM.
As to `CC(C)C[C@H]1NC(=O)[C@H](CCCN)NC(=O)[C@H](C(C)C)NC(=O)[C@H](Cc2ccc(-c3ccccc3)cc2)NC(=O)[C@H](C(C)C)NC(=O)[C@H](Cc2ccc(N)cc2)NC(=O)[C@H](CC(=O)O)NC(=O)[C@H](Cc2ccc(OCC(=O)O)cc2)NC(=O)[C@H](CN)NC(=O)CSC[C@@H](C(=O)N[C@@H](CCN)C(N)=O)NC(=O)[C@H](CCCCN)NC(=O)[C@H](C(C)C)NC(=O)[C@H](CC2CCCCC2)NC(=O)[C@H](CCN)NC1=O` [Compound 2032] ({CH2CO}-[Dap]Y(Carboxymethyl)D[Phe(4-NH2)]V[Bip]V[Orn][dL][Dab][Cha]VKC[Dab]-NH2; thioether N-14), the IC50 under setting [1] is 18.1 nM.
Same read-out and setting: the figure for `CC(C)C[C@H]1NC(=O)[C@H](CCCN)NC(=O)[C@H](CCC(=O)O)NC(=O)[C@H](Cc2ccc(-c3ccccc3)cc2)NC(=O)[C@H](C(C)C)NC(=O)[C@H](Cc2cccc(Cl)c2)NC(=O)[C@H](CC(=O)O)NC(=O)[C@H](Cc2ccc(O)cc2)NC(=O)[C@H](Cc2ccncc2)NC(=O)CSC[C@@H](C(=O)N[C@@H](C)C(N)=O)NC(=O)[C@H]([C@@H](C)O)NC(=O)[C@H](C(C)C)NC(=O)[C@H](CC2CCCCC2)NC(=O)[C@H](CCN)NC1=O` [Compound 1489] is 13.6 nM.
